What was measured:
[1] = in vitro; settings: human
[2] = system: HL-60; assay: HL-60 differentiation potency; type: cell-based; settings: Homo sapiens

| SMILES | IC50 [1] | EC50 [2] | IC50 ([1]; HL-60 cells) |
| --- | --- | --- | --- |
| C[C@H]1[C@@H](OCc2ccc(C(=O)NC34CCC(C(=O)O)(C3)C4)cc2)O[C@@H]2O[C@@]3(C)CC[C@H]4[C@H](C)CC[C@@H]1[C@@]24OO3 [Compound 293, 4-(4-((((3R,5aS,6R,8aS, 9R,10S,12R, 12aR)-3,6,9-trimethyldeca-hydro-12H-3,12-epoxy[1,2]dioxepino[4,3-i]isochromen-10-yl)oxy)methyl)benzamido) bicyclo[2.1.1] hexane-1-carboxylic acid] | > 20000 nM | 43.2 nM |  |
| C[C@H]1[C@@H](OCc2ccc(NC(=O)[C@H]3CC[C@@H](C(=O)O)C3)cc2)O[C@@H]2O[C@@]3(C)CC[C@H]4[C@H](C)CC[C@@H]1[C@@]24OO3 [Compound 294, (1R,3S)-3-((4-((((3R,5aS,6R,8aS, 9R,10S,12R, 12aR)-3,6,9-trimethyldeca-hydro-12H-3,12-epoxy[1,2]dioxepino[4,3-i]isochromen-10-yl)oxy)methyl)phenyl)carbamoyl) cyclopentane-1-carboxylic acid] | 15800 nM | 65 nM |  |
| C[C@H]1[C@@H](OC[C@H]2CC[C@@H](C(=O)NC34CCC(C(=O)O)(C3)C4)CC2)O[C@@H]2O[C@@]3(C)CC[C@H]4[C@H](C)CC[C@@H]1[C@@]24OO3 [Compound 295, 4-((1R,4s)-4-((((3R,5aS,6R,8aS, 9R,10S,12R, 12aR)-3,6,9-trimethyldeca-hydro-12H-3,12-epoxy[1,2]dioxepino[4,3-i]isochromen-10-yl)oxy)methyl)cyclohexane-1-carboxamido) bicyclo[2.1.1] hexane-1-carboxylic acid] | > 20000 nM | 197 nM |  |
| C[C@H]1[C@@H](OCc2ccc(N3C(=O)N(CC(=O)O)C(C)(C)C3=O)cc2)O[C@@H]2O[C@@]3(C)CC[C@H]4[C@H](C)CC[C@@H]1[C@@]24OO3 [Compound 296, 2-(5,5-dimethyl-2,4-dioxo-3-(4-((((3R,5aS,6R,8aS, 9R,10S,12R, 12aR)-3,6,9-trimethyldeca-hydro-12H-3,12-epoxy[1,2]dioxepino[4,3-i]isochromen-10-yl)oxy)methyl)phenyl)imidazolidin-1-yl)acetic acid] | > 20000 nM | 2910 nM |  |
| C[C@H]1[C@@H](OC[C@H]2CC[C@@H](C(=O)NCC3(C(=O)O)CCC3)CC2)O[C@@H]2O[C@@]3(C)CC[C@H]4[C@H](C)CC[C@@H]1[C@@]24OO3 [Compound 297, 1-(((1R,4s)-4-((((3R,5aS,6R,8aS, 9R,10S,12R, 12aR)-3,6,9-trimethyldeca-hydro-12H-3,12-epoxy[1,2]dioxepino[4,3-i]isochromen-10-yl)oxy)methyl)cyclohexane-1-carboxamido)methyl) cyclobutane-1-carboxylic acid] | 17700 nM | 31.7 nM |  |
| C[C@H]1[C@@H](OCc2ccc(C(=O)O)c(OC(F)(F)F)c2)O[C@@H]2O[C@@]3(C)CC[C@H]4[C@H](C)CC[C@@H]1[C@@]24OO3 [Compound 298, 2-(trifluoro-methoxy)-4-((((3R,5aS,6R,8aS, 9R,10S,12R, 12aR)-3,6,9-trimethyldeca-hydro-12H-3,12-epoxy[1,2]dioxepino[4,3-i]isochromen-10-yl)oxy)methyl) benzoic acid] | > 20000 nM | 53.1 nM |  |
| C[C@H]1[C@@H](Oc2ccc(CC(=O)N[C@@H]3C[C@H](C(=O)O)C[C@H]3O)cc2)O[C@@H]2O[C@@]3(C)CC[C@H]4[C@H](C)CC[C@@H]1[C@@]24OO3 [Compound 299, (1S,3R,4R)-3-hydroxy-4-(2-(4-(((3R,5aS,6R,8aS, 9R,10S,12R, 12aR)-3,6,9-trimethyldeca-hydro-12H-3,12-epoxy[1,2]dioxepino[4,3-i]isochromen-10-yl)oxy)phenyl)acetamido) cyclopentane-1-carboxylic acid] | 4990 nM | 108 nM |  |
| C[C@H]1[C@@H](Oc2ccc(CC(=O)NC34CCC(C(=O)O)(C3)C4)cc2)O[C@@H]2O[C@@]3(C)CC[C@H]4[C@H](C)CC[C@@H]1[C@@]24OO3 [Compound 300, 4-(2-(4-(((3R,5aS,6R,8aS, 9R,10S,12R, 12aR)-3,6,9-trimethyldeca-hydro-12H-3,12-epoxy[1,2]dioxepino[4,3-i]isochromen-10-yl)oxy)phenyl)acetamido) bicyclo[2.1.1] hexane-1-carboxylic acid] | 19500 nM | 17 nM |  |
| C[C@H]1[C@@H](Oc2ccc(CC(=O)N[C@H](C(=O)O)C3CC3)cc2)O[C@@H]2O[C@@]3(C)CC[C@H]4[C@H](C)CC[C@@H]1[C@@]24OO3 [Compound 301, (S)-2-cyclopropyl-2-(2-(4-(((3R,5aS,6R,8aS, 9R,10S,12R, 12aR)-3,6,9-trimethyldeca-hydro-12H-3,12-epoxy[1,2]dioxepino[4,3-i]isochromen-10-yl)oxy)phenyl)acetamido) acetic acid] | > 20000 nM | 63.5 nM |  |
| C[C@H]1[C@@H](Oc2ccc(CC(=O)NC34CC(C(=O)O)(C3)C4)cc2)O[C@@H]2O[C@@]3(C)CC[C@H]4[C@H](C)CC[C@@H]1[C@@]24OO3 [Compound 303, 3-(2-(4-(((3R,5aS,6R,8aS, 9R,10S,12R, 12aR)-3,6,9-trimethyldeca-hydro-12H-3,12-epoxy[1,2]dioxepino[4,3-i]isochromen-10-yl)oxy)phenyl)acetamido) bicyclo[1.1.1] pentane-1-carboxylic acid] | > 20000 nM | 46.4 nM |  |
| C[C@H]1[C@@H](OCc2ccc(-c3nnc(CC(=O)O)o3)cc2)O[C@@H]2O[C@@]3(C)CC[C@H]4[C@H](C)CC[C@@H]1[C@@]24OO3 [Compound 304, 2-(5-(4-((((3R,5aS,6R,8aS, 9R,10S,12R, 12aR)-3,6,9-trimethyldeca-hydro-12H-3,12-epoxy[1,2]dioxepino[4,3-i]isochromen-10-yl)oxy)methyl)phenyl)-1,3,4-oxadiazol-2-yl)acetic acid] | 30 nM | 11.2 nM |  |
| CC(C(=O)N[C@H]1CC[C@@H](C(=O)O)C1)c1ccc(O[C@H]2O[C@@H]3O[C@@]4(C)CC[C@H]5[C@H](C)CC[C@@H]([C@H]2C)[C@@]35OO4)c(F)c1 (stereo partly drawn) [Compound 306, (1R,3S)-3-(2-(3-fluoro-4-(((3R,5aS,6R,8aS, 9R,10S,12R, 12aR)-3,6,9-trimethyldeca-hydro-12H-3,12-epoxy[1,2]dioxepino[4,3-i]isochromen-10-yl)oxy)phenyl)propanamido) cyclopentane-1-carboxylic acid] | 690 nM | 13.3 nM |  |
| C[C@H]1[C@@H](Oc2ccc(CC(=O)N[C@H]3CC[C@H](C(=O)O)C3)cc2)O[C@@H]2O[C@@]3(C)CC[C@H]4[C@H](C)CC[C@@H]1[C@@]24OO3 [Compound 307, (1S,3S)-3-(2-(4-(((3R,5aS,6R,8aS, 9R,10S,12R, 12aR)-3,6,9-trimethyldeca-hydro-12H-3,12-epoxy[1,2]dioxepino[4,3-i]isochromen-10-yl)oxy)phenyl)acetamido) cyclopentane-1-carboxylic acid] | 11700 nM | 25.9 nM |  |
| C[C@H]1[C@@H](Oc2ccc(CC(=O)N[C@H]3CC[C@@H](C(=O)O)CC3)cc2)O[C@@H]2O[C@@]3(C)CC[C@H]4[C@H](C)CC[C@@H]1[C@@]24OO3 [Compound 308, (1R,4s)-4-(2-(4-(((3R,5aS,6R,8aS, 9R,10S,12R, 12aR)-3,6,9-trimethyldeca-hydro-12H-3,12-epoxy[1,2]dioxepino[4,3-i]isochromen-10-yl)oxy)phenyl)acetamido) cyclohexane-1-carboxylic acid] |  | 12.1 nM | > 20000 nM |
